# Measurements taken from publication PMC3214022, “Plasmodium falciparum Parasites Are Killed by a Transition State Analogue of Purine Nucleoside Phosphorylase in a Primate Animal Model” (PLoS ONE, 2011).
# Several values for one entry are separate records, joined by “and”; a condition that tells them apart may be missing. Equal entries are not always repeated.
# Assay: Weights, CBC and blood chemistry, Table S1 sheet PD-1 (efficacy study in P. falciparum-infected Aotus)
# Assay type: in vivo, Aotus lemurinus lemurinus
# Experimental: Laboratory bred Aotus lemurinus lemurinus monkeys (0.75–0.89 kg) were maintained as described. […] Blood samples were collected before the treatment started (t = 0), 0.05 h, 0.5 h, 1 h, 2 h, 6 h, 24 h, 48 h, and 6, 12 and 18 days after the first dose from each monkey and processed as described below. Pharmacokinetic parameters were calculated using PKSolver. For efficacy studies, Aotus monkeys were inoculated intravenously with 5×10^6 parasites of the FVO strain of P. falciparum in an approved treatment protocol. […] Parasitaemia was determined by Giemsa-stained thick blood smears prepared daily from the marginal ear vein [41]. Blood samples were collected from each monkey and transferred to tubes containing lithium heparin, centrifuged and both plasma and blood cells were frozen at −80 °C until analysis. Animals received a physical examination and blood chemistry profiles were monitored after treatment as described previously. Any monkey not responding appropriately to treatment was cured of its infection with mefloquine (40 mg kg^−1). […] The day of clearance is defined as the first of three consecutive days in which the thick blood films are parasite negative. The day of recrudescence is the first of three consecutive days of positive thick blood films after a period of clearance. Suppression is defined as a transient decrease in the parasite count post-treatment without clearance.
# [1] = IV 10 mg/kg once a day/3 days, day -2, 10 mg/kg
# [2] = oral 50 mg/kg once a day/3 days, day 9, 50 mg/kg
# [3] = oral 50 mg/kg once a day/3 days, day 12, 50 mg/kg
# [4] = oral 50 mg/kg once a day/3 days, day 19, 50 mg/kg
# [5] = oral 50 mg/kg once a day/3 days, day 25, 50 mg/kg
# [6] = oral 50 mg/kg once a day/3 days, day -2, 50 mg/kg
smiles,measurement,setting,value
"Nc1nc2c(CN3CC(O)C(CO)C3)c[nH]c2c(=O)[nH]1 (centres unmarked) [BCX4945, 4′-deaza-1′-aza-2′-deoxy-1′-(9-methylene)-Immucillin-G]",Mean Platelet Volume,[1],14.7 fL and 12.2 fL and 11 fL and 10.9 fL and 13.1 fL
same,Monocytes (%),[1],5.1% and 3.6% and 2.9% and 6.5% and 4.2%
same,Monocytes (x 103/ul),[1],0.9 x 103/ul and 0.8 x 103/ul and 0.6 x 103/ul and 0.5 x 103/ul and 0.7 x 103/ul
same,Platelets,[1],354000 µL⁻¹ and 250000 µL⁻¹ and 406000 µL⁻¹ and 431000 µL⁻¹ and 270000 µL⁻¹ and 371000 µL⁻¹
same,Red Cell Distribution Width,[1],12.5% and 12.2% and 11.4% and 12.4% and 12%
same,Reticulocytes,[1],1.9% and 1% and 1.5% and 1.2% and 1.3%
same,WEIGHT,[1],680 g and 766 g and 832 g and 849 g and 684 g
same,Blood Urea Nitrogen,[2],14.3 mg/dL and 15 mg/dL and 13.15 mg/dL
same,Creatinine,[2],0.672 mg/dL and 0.825 mg/dL and 0.587 mg/dL
same,Erythrocytes,[2],4.76e+06 µL⁻¹ and 5.14e+06 µL⁻¹ and 3.94e+06 µL⁻¹
same,Granulocytes (%),[2],21.7% and 25.8% and 21.1%
same,Granulocytes (x 103/ul),[2],4.4 x 103/ul and 2.3 x 103/ul and 3.3 x 103/ul
same,Hematocrit,[2],38.1% and 39.5% and 32.5%
same,Hemoglobin,[2],12.9 g/dL and 13.5 g/dL and 10.8 g/dL
same,Lymphocytes (%),[2],61% and 66.1% and 63.4%
same,Mean Corpuscular Hemoglobin,[2],27.1 pg and 26.3 pg and 27.5 pg
same,Mean Corpuscular Volume,[2],80.1 fL and 76.8 fL and 82.4 fL
same,Mean Hemoglobin Content,[2],33.8 g/dL and 34.2 g/dL and 33.4 g/dL
same,Mean Platelet Volume,[2],11 fL and 13.9 fL
same,Monocytes (%),[2],17.3% and 8.1% and 15.5%
same,Red Cell Distribution Width,[2],13.3% and 12% and 10.8%
same,Reticulocytes,[2],2.5% and 1.1% and 1%
same,WEIGHT,[2],851 g and 873 g and 776 g
same,Blood Urea Nitrogen,[3],23.05 mg/dL and 23.55 mg/dL and 26.95 mg/dL
same,Creatinine,[3],0.563 mg/dL and 0.686 mg/dL and 0.565 mg/dL
same,Erythrocytes,[3],4.04e+06 µL⁻¹ and 4.25e+06 µL⁻¹ and 2.77e+06 µL⁻¹
same,Glutamate Pyruvate Transaminase,[3],46.7 U/L and 46.1 U/L and 37.8 U/L
same,Granulocytes (%),[3],17.9% and 26.3% and 14.8%
same,Hematocrit,[3],33.2% and 32.4% and 22.7%
same,Hemoglobin,[3],7.7 g/dL
same,Leucocytes,[3],42000 µL⁻¹ and 22200 µL⁻¹ and 22000 µL⁻¹
same,Lymphocytes (%),[3],68.1% and 66.2% and 76.8%
same,Lymphocytes (x 103/ul),[3],28.6 x 103/ul and 14.7 x 103/ul and 16.9 x 103/ul
same,Mean Corpuscular Hemoglobin,[3],27.7 pg and 26.4 pg and 27.6 pg
same,Mean Corpuscular Volume,[3],82.1 fL and 76.4 fL and 81.9 fL
same,Mean Hemoglobin Content,[3],33.7 g/dL and 34.5 g/dL
same,Mean Platelet Volume,[3],11.3 fL and 14.6 fL and 11.8 fL
same,Monocytes (%),[3],14% and 7.5% and 8.4%
same,Red Cell Distribution Width,[3],13.4% and 11.3%
same,Reticulocytes,[3],1.9% and 2% and 2.3%
same,WEIGHT,[3],800 g and 804 g and 738 g
same,Blood Urea Nitrogen,[4],16.75 mg/dL and 18.3 mg/dL and 27.85 mg/dL
same,Creatinine,[4],0.614 mg/dL and 0.695 mg/dL and 0.678 mg/dL
same,Erythrocytes,[4],3.94e+06 µL⁻¹ and 4.96e+06 µL⁻¹ and 3.82e+06 µL⁻¹
same,Granulocytes (%),[4],9.6% and 17.6% and 10.1%
same,Hematocrit,[4],35.3% and 41.8% and 36.2%
same,Hemoglobin,[4],11.5 g/dL and 14 g/dL and 11.6 g/dL
same,Lymphocytes (%),[4],79% and 75.3% and 78.4%
same,Mean Corpuscular Hemoglobin,[4],29.3 pg and 28.3 pg and 30.3 pg
same,Mean Corpuscular Volume,[4],89.8 fL and 84.2 fL and 94.8 fL
same,Mean Hemoglobin Content,[4],32.6 g/dL and 33.6 g/dL and 32 g/dL
same,Mean Platelet Volume,[4],12.3 fL and 13.3 fL and 19.7 fL
same,Monocytes (%),[4],11.4% and 11.5%
same,Monocytes (x 103/ul),[4],6.8 x 103/ul and 3.9 x 103/ul
same,Red Cell Distribution Width,[4],22.7% and 21.9% and 24.4%
same,Reticulocytes,[4],1.7% and 1.6% and 1.8%
same,WEIGHT,[4],832 g and 847 g and 757 g
same,Blood Urea Nitrogen,[5],24.4 mg/dL and 16 mg/dL and 21 mg/dL
same,Creatinine,[5],0.52 mg/dL and 0.578 mg/dL and 0.663 mg/dL
same,Erythrocytes,[5],4.62e+06 µL⁻¹ and 4.69e+06 µL⁻¹ and 5.44e+06 µL⁻¹
same,Glutamate Pyruvate Transaminase,[5],17.7 U/L and 27.2 U/L
same,Hematocrit,[5],40.4% and 41.4% and 44.4%
same,Hemoglobin,[5],13.5 g/dL and 14 g/dL and 15.5 g/dL
same,Leucocytes,[5],15400 µL⁻¹ and 16400 µL⁻¹ and 15300 µL⁻¹
same,Lymphocytes (%),[5],65.9% and 79.6% and 75.3%
same,Lymphocytes (x 103/ul),[5],10.1 x 103/ul and 13.1 x 103/ul and 11.5 x 103/ul
same,Mean Corpuscular Hemoglobin,[5],29.3 pg and 29.8 pg and 28.6 pg
same,Mean Corpuscular Volume,[5],87.4 fL and 88.1 fL and 81.7 fL
same,Mean Hemoglobin Content,[5],33.5 g/dL and 33.7 g/dL and 35 g/dL
same,Mean Platelet Volume,[5],14.1 fL
same,Monocytes (%),[5],7.3% and 7% and 11.7%
same,Monocytes (x 103/ul),[5],1.1 x 103/ul and 1.8 x 103/ul
same,Red Cell Distribution Width,[5],19.2% and 20.4% and 17.9%
same,Reticulocytes,[5],1.3% and 2.1% and 2%
same,WEIGHT,[5],748 g and 818 g and 853 g
same,Mean Platelet Volume,"oral 50 mg/kg once a day/3 days, day -2",12.8 fL
same,Blood Urea Nitrogen,[6],18 mg/dL and 23.05 mg/dL
same,Creatinine,[6],0.679 mg/dL and 0.554 mg/dL
same,Erythrocytes,[6],7.17e+06 µL⁻¹ and 6.1e+06 µL⁻¹ and 5.2e+06 µL⁻¹
same,Granulocytes (%),[6],33.3% and 31.8% and 22.4%
same,Hematocrit,[6],54.4% and 48% and 42.5%
same,Hemoglobin,[6],19.3 g/dL and 17 g/dL and 14.7 g/dL
same,Leucocytes,[6],16900 µL⁻¹ and 15400 µL⁻¹ and 11300 µL⁻¹
same,Lymphocytes (%),[6],61.5% and 64.5% and 73.1%
same,Lymphocytes (x 103/ul),[6],10.4 x 103/ul and 9.9 x 103/ul and 8.3 x 103/ul
same,Mean Corpuscular Hemoglobin,[6],26.8 pg and 27.8 pg and 28.2 pg
same,Mean Corpuscular Volume,[6],75.8 fL and 78.6 fL and 81.7 fL
same,Mean Hemoglobin Content,[6],35.4 g/dL and 34.6 g/dL
same,Mean Platelet Volume,[6],10.2 fL and 10.4 fL
same,Monocytes (%),[6],5.2% and 3.7% and 4.5%
same,Monocytes (x 103/ul),[6],0.9 x 103/ul and 0.6 x 103/ul and 0.5 x 103/ul
same,Platelets,[6],463000 µL⁻¹ and 389000 µL⁻¹ and 372000 µL⁻¹
same,Red Cell Distribution Width,[6],11.8% and 13.6% and 10.4%
same,Reticulocytes,[6],1.8% and 2% and 1.7%
same,WEIGHT,[6],804 g and 800 g and 738 g
